The values below come from US20240034730A1, “PYRAZOLO DERIVATIVES AS HUMAN DIHYDROOROTATE DEHYDROGENASE (HDHODH) INHIBITORS FOR USE AS ANTIVIRALS” (DRUG DISCOVERY AND CLINIC S.R.L., priority 2020, published 2024).

The target in the first assay is recombinant hDHODH (Homo sapiens (Human), UniProt Q02127). Put plainly: hDHODH inhibition assay (DCIP reduction).
recombinant hDHODH, sequence (Q02127 whole entry): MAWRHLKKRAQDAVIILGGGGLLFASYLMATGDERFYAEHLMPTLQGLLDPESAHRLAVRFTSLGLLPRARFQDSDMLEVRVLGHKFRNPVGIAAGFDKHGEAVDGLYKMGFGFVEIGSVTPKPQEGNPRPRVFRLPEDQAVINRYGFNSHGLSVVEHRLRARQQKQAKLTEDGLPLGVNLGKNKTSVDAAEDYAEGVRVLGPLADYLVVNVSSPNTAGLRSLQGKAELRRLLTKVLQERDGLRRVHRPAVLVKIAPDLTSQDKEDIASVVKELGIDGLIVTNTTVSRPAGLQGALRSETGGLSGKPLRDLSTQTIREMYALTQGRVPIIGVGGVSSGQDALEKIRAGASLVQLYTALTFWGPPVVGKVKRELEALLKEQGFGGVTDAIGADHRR
Details: not given
Format: biochemical.
As a reminder, the IC50 is the point on the concentration scale where inhibition reaches its midpoint. As to `CCC(CC)Oc1cc(Oc2ccccc2)c(C)cc1NC(=O)c1c(O)nn2ccccc12` [Compound 35, 2-Hydroxy-N-(5-methyl-2-(pentan-3-yloxy)-4-phenoxyphenyl)pyrazolo[1,5-a]pyridine-3-carboxamide], the IC50 is 6980 ± 1010 nM.

The same assay, now with this note: recombinant GST-hDHODH; means ± SE of three independent experiments.
With `Oc1nn2ccccc2c1/N=N/c1ccc(Oc2ccccc2)cc1` [Compound 38, (E)-3-((4-phenoxyphenyl)diazinyl)pyrazolo[1,5-a]pyridin-2-ol], the “hDHODH IC50 ± SE” value is “Inactive at 1 microM”.
The same measure, in the same setting: then `Oc1nn2ccccc2c1-c1nnc(-c2c(F)c(F)c(-c3ccccc3)c(F)c2F)o1` [Compound 39, 3-(5-(2,3,5,6-Tetrafluoro-[1,1′-biphenyl]-4-yl)-1,3,4-oxadiazol-2-yl) pyrazolo [1,5-a]pyridine-2-ol], with “Inactive at 1 microM”.

The assay is the same for the next values; noted with them: recombinant GST-hDHODH; means ± SE of three independent experiments; read-out: hDHODH IC50 ± SE.
Regarding `Cc1cccc2c(C(=O)Nc3c(F)c(F)c(-c4ccccc4)c(F)c3F)c(O)nn12` [Compound 2], the IC50 worked out at 4.3 nM.
On the same count and under the same terms, as for `O=C(Nc1c(F)c(F)c(-c2cccs2)c(F)c1F)c1c(O)nn2ccccc12` [Compound 7, 2-Hydroxy-N-(2,3,5,6-tetrafluoro-4-(thiophen-2-yl)phenyl)pyrazolo[1,5-a]pyridine-3-carboxamide], the figure is 1.35 ± 0.45 nM; as for `COc1cccc(-c2c(F)c(F)c(NC(=O)c3c(O)nn4ccccc34)c(F)c2F)c1` [Compound 16, 2-Hydroxy-N-(2,3,5,6-tetrafluoro-3′-methoxy-[1,1′-biphenyl]-4-yl)pyrazolo[1,5-a]pyridine-3-carboxamide], 2.75 ± 0.31 nM; as for `Cc1cc(Oc2ccccc2)c(C)cc1NC(=O)c1c(O)nn2ccccc12` [Compound 18], 43 ± 5 nM.
Still for that read-out and setting: then `O=C(Nc1ccc(Oc2ccccc2)cn1)c1c(O)nn2ccccc12` [Compound 23, 2-Hydroxy-N-(5-phenoxypiridin-2-yl)pyrazolo[1,5-a]pyridine-3-carboxamide], with 12000 ± 1000 nM; and `O=C(Nc1ccc(Oc2cccc(C(F)(F)F)c2)cn1)c1c(O)nn2ccccc12` [Compound 24, 2-Hydroxy-N-5-[3-(trifluoromethyl)phenoxy]piridin-2-ylpyrazolo[1,5-a]pyridine-3-carboxamide], with above 10000 nM; and `Cc1cc(NC(=O)c2c(O)nn3ccccc23)ccc1Oc1ccccc1` [Compound 27], with 480 ± 31 nM.
The same measure, in the same setting: then `Cc1cc(NC(=O)c2c(O)nn3ccccc23)c(OC(C)C)cc1Oc1ccccc1` [Compound 31, 2-Hydroxy-N-(2-isopropoxy-5-methyl-4-phenoxyphenyl)pyrazolo[1,5-a]pyridine-3-carboxamide], with 5200 ± 924 nM.
`Cc1cc(NC(=O)c2c(O)nn3ccccc23)c(OC2CCC2)cc1Oc1ccccc1` [Compound 32, N-(2-cyclobutoxy-5-methyl-4-phenoxyphenyl)-2-hydroxypyrazolo[1,5-a]pyridine-3-carboxamide]: the half-inhibitory concentration (IC50) was above 10000 nM.
The same measure, in the same setting: as for `CCC(C)Oc1cc(Oc2ccccc2)c(C)cc1NC(=O)c1c(O)nn2ccccc12` (stereo not shown) [Compound 33, N-(2-(Sec-butoxy)-5-methyl-4-phenoxyphenyl)-2-hydroxypyrazolo[1,5-a]pyridine-3-carboxamide], the figure is 3940 ± 797 nM; as for `CCCC(C)Oc1cc(Oc2ccccc2)c(C)cc1NC(=O)c1c(O)nn2ccccc12` (stereo not shown) [Compound 34, 2-Hydroxy-N-(5-methyl-2-(pentan-2-yloxy)-4-phenoxyphenyl) pyrazolo[1,5-a]pyridine-3-carboxamide], 2210 ± 346 nM; as for `CC(=O)COc1cccc(-c2c(F)c(F)c(NC(=O)c3c(O)nn4ccccc34)c(F)c2F)c1` [Compound 41, 2-Hydroxy-N-(2,3,5,6-tetrafluoro-3′-(2-oxopropoxy)-[1,1′-biphenyl]-4-yl) pyrazolo [1,5-a]pyridine-3-carboxamide], 0.82 ± 0.1 nM.
Same read-out and setting: then `O=C(Nc1c(F)c(F)c(-c2cccc(OCCCO)c2)c(F)c1F)c1c(O)nn2ccccc12` [Compound 42, 2-Hydroxy-N-(2,3,5,6-tetrafluoro-3′-(3-hydroxypropoxy)-[1,1′-biphenyl]-4-yl) pyrazolo[1,5-a]pyridine-3-carboxamide], with 3.29 ± 0.33 nM.
